Experimental findings from patent US20250275993A1, “GLYCOSYLATION INHIBITORS AS THERAPEUTICS FOR STROKE” (The Regents of the University of California, priority 2022, published 2025) are described below.

The test system of one data set is AML12 liver cells. In words: AML12 proliferation assay. Type of data set: cell-based, mouse. How it is done:
Proliferation assays with fibroblasts were done in low-glucose DMEM containing 1% FBS, with or without 10 ng/ml bFGF, or 100 ng/ml human EGF and the assay was ended at day 3. ARPE-19 cells were gently lifted with 0.025% trypsin and plated in RtEGM media (Clonetics) containing 2% FBS, L-glutamine, human bFGF and GA-1000. Once cells were attached to plates, serum-free RtEGM media was used to maintain the cultures. For proliferation assays, 1500 human RPE cells were plated into 96-well plates in low-glucose DMEM containing 1% FBS. A673, U87MG, Calu6 and AML12 cells were grown until confluent and were then harvested and re-suspended in appropriate assay media. For proliferation assays, cells were plated at the density of 1000-2000 cells/well in low-glucose DMEM containing 5% FBS or otherwise stated. Bovine pituitary cells (pituitary folliculostellate cells) were isolated as previously described. For proliferation assays with human epidermal keratinocytes, human DMVECs and human dermal fibroblast cells, 1000 cells/well were plated in low-glucose DMEM containing 1% FBS with or without various growth factors. The assay was ended at day 3 for bovine pituitary cells and at day 4 for all the other cell types. […] Four days later, tumor cell growth was measured by the MTS assay (Promega, Madison, WI), a colorimetric assay that measures metabolic activity of viable cells. […]

For data set [1], the system named is HUVEC. In words: HUVEC scratch assay. The note with it: 40 μM ManN in combination with 50 ng/ml VEGF. Format: cell-based, human. As to the method:
BCECs (passage 6-10) and HUVEC (passage 6-8) were used in this assay.
Cells were grown until about 80% confluency in 6-well plates, washed twice with PBS and then starved in serum-free DMEM (low Glucose, Hyclone) for 5 hrs before making a “scratch” using 1 ml tip. Cell monolayers were briefly washed once with serum-free media, followed by various treatments in media containing 1% FBS. 48 hrs later, the assay was stopped by adding 2 ml 4% paraformaldehyde. 20 min later, fixed cells were stained with 1 ml Crystal Violet (Sigma). Plates were washed gently under the running tap water and air-dried before taking pictures. Images were acquired by ZEISS Discovery V8 SteREO microscopy equipped with PixeLINK Megapixel FireWire camera. Quantification of wound closure was done using AxioVision LE Rel.4.4 software. Six images were taken for each sample and six measurements (in pixel) were made on each image using AxioVision LE Re1.4.4 software.

The test system of data set [2] is dermal microvascular endothelial cells (hDMVECs). In words: hDMVEC proliferation assay. Format: cell-based, human. As to the method:
(§1) Proliferation assays with BCECs and BRECs were performed. Log-phase growing BCECs or BRECs (passage <10) were trypsinized, re-suspended and seeded in 96-well plates (no coating) in low-glucose DMEM supplemented with 10% bovine calf serum, 2 mM glutamine, and antibiotics (growth medium), at a density of 1200-1500 cells per well in 200 μl volume. All reagents were added at the indicated final concentrations. After 3-6 days, cells were incubated with AlamarBlue for 4 hrs. Fluorescence was measured at 530 nm excitation wavelength and 590 nm emission wavelength. The experiments were repeated at least three times. To create a hypoxic condition, cells were placed in a hypoxia incubator with a mixture of gas consisting of 1% O2, 5% CO2 and 94% N2. On each 96-well plate, untreated and VEGF-treated (10/ng/ml) wells were included to monitor plate-to-plate variations. 20% methanol or 0.05% DMSO served as negative controls. […] Human RMVECs and human adult DMVECs were split into Gelatin-coated 96 wells (2000 cells per well) in low glucose DMEM containing 10% FBS. 1200 cells/well was set up for proliferation assay in low glucose media containing 0.5% FBS. Data was collected at day 4 or 5. HUVEC (p7-10) were grown on gelatin-coated plate until it reached 70-80% confluency.
Proliferation assays with fibroblasts were done in low-glucose DMEM containing 1% FBS, with or without 10 ng/ml bFGF, or 100 ng/ml human EGF and the assay was ended at day 3. ARPE-19 cells were gently lifted with 0.025% trypsin and plated in RtEGM media (Clonetics) containing 2% FBS, L-glutamine, human bFGF and GA-1000. Once cells were attached to plates, serum-free RtEGM media was used to maintain the cultures. For proliferation assays, 1500 human RPE cells were plated into 96-well plates in low-glucose DMEM containing 1% FBS. A673, U87MG, Calu6 and AML12 cells were grown until confluent and were then harvested and re-suspended in appropriate assay media. […] Four days later, tumor cell growth was measured by the MTS assay (Promega, Madison, WI), a colorimetric assay that measures metabolic activity of viable cells. […]

The subject of the next data set is skin wound. In words: Skin wound healing model (splinted wound). The note with it: topical 20 μg daily; mice; PBS group 81.5%. Format: in vivo, mouse. An excerpt: The model has been previously described. Briefly, C57BL/6 female mice (8-10 weeks old) were obtained from Jackson labs (Sacramento, CA). A fresh, full-thickness punch wound (4 mm diameter) using a punch (Acu Punch, Acuderm inc. Ft. Lauderdale, FL) splinted with a sterile neoprene ring (6-mm outer diameter and 4-mm inner diameter), fastened with 5-6 sutures (4-0 nylon) under the influence of Isoflurane was created on the back of the animal in a Class II Biological Safety Cabinet. For all surgical procedures, sterile technique was followed. Buprenorphine was given subcutaneously prior to awakening from anesthesia for anticipated pain. Mice were monitored until fully awake and were housed individually to minimize damage/biting/fighting to the surgical site. […] Treatment agents were prepared in PBS, sterile-filtered and 25 μl solution was applied daily directly to a wound bed for the first 4-5 days under the influence of Isoflurane, followed by daily observation. Wound closure was monitored by regular imaging and the wound area was quantified using ImageJ (National Institutes of Health, Bethesda, MD, USA). […] Epithelial gap was measured histomorphometrically using AxioVision LE Rel.4.4 software. […] Small vessels stained positive for CD31 were counted microscopically on 10 fields (20×) taken around the wound.

Data set [3] relates to HUVEC. Nature of the data set: HUVEC proliferation assay. Format: cell-based, human. As to the method: as §1
On the day of the assay, cells were dissociated with 0.05% trypsin, which was neutralized with 0.5% FBS-containing EBM. Cells were briefly spun and then re-suspended in 0.5% FBS-media. Cells were counted and plated in 96-well, 1000 cells/well. Triplicate wells were used for each treatment. Data were collected at day 3, and then cells were fixed in 4% paraformaldehyde for 15 min before adding crystal violet. Cell-covered areas were quantified after taking pictures by Image J software.

In the case of `N[C@H](C=O)[C@@H](O)[C@H](O)[C@H](O)CO` [ManN, 2-Amino-2-deoxy-D-mannose], in the data set on AML12 liver cells (5 mM level of ManN), the “sensitivity of AML12 to ManN toxicity” value is “most sensitive one”. Also, the “proliferation of AML12” value in the data set with AML12 liver cells (alone or in combination with growth factors) is reported as “no increases in proliferation”. Besides, the HUVEC wound closure result with HUVEC [1] is “stimulation of migration and wound closure”. Further, the “toxicity on hDMVECs” value in data set [2] (5 mM ManN) is “minimal toxicity”. For the same compound, the “hDMVECs growth, ManN by itself” value in data set [2] (ManN alone) is given as “stimulated”. The “additivity with VEGF on hDMVEC proliferation” value in data set [2] (with VEGF) is reported as “dose-dependent additivity with VEGF”. Further, the “average closure of the wound on day 4” value in the data set on skin wound was found to be 75.6%. Also, in the data set with HUVEC [3] (5 mM ManN), the “toxicity on HUVEC” value is “minimal toxicity”. For the same compound, the “HUVEC growth, ManN by itself” value in the data set on HUVEC [3] (ManN alone) is recorded as “stimulated”. For the same compound, the “additivity with VEGF on HUVEC proliferation” value with HUVEC [3] (with VEGF) is listed as “dose-dependent additivity with VEGF”.
